Source: patent US8952025B2, “Multifunctional radical quenchers and their uses” (Arizona Board of Regents, A Body Corporate of the State of …, priority 2010, dated 2015)
“Also recorded” adds a separate entry of the source. Like-named read-outs stand apart in the source and are kept apart here.

What was measured:
FRDA fibroblasts = assay: Calcein-AM cell viability assay, BSO-treated FRDA fibroblasts; assay type: cell-based, human; details: for protection of FRDA fibroblasts from oxidative damage (cell viability): BSO-treated FRDA fibroblast; for EC50: BSO-treated FRDA fibroblasts, calcein-AM fluorescence, read-out: EC50 (effective concentration that prevents 50% of cell death)
Description: A cell viability assay using the dye calcein acetoxymethyl (AM) was used to determine the effects of invention compounds on GSH-mediated cell death in primary FRDA patient derived fibroblasts (Jauslin et al. (2002) Human Molecular Genetics. 11, 3055-3063) FRDA fibroblasts were treated with L-buthionine (S,R)-sulfoximine (BSO) to inhibit de novo synthesis of GSH (Griffith et al. (1979) J. Biol. Chem. 254, 7558-7560) causing oxidative stress, plasma membrane damage and cell death. Fibroblasts from Friedreich Ataxia patients, but not control cells, die after GSH depletion on incubation with BSO (Jauslin et al. (2002) Human Molecular Genetics. 11, 3055-3063). Cell viability was determined using calcein-AM (Molecular Probe, Eugene, Oreg.). In live cells, non-fluorescent calcein AM is hydrolyzed by intracellular esterases to produce the strongly green fluorescent anion calcein.
Cell culture and reagents: Primary fibroblasts were derived from a patient donor with a molecular diagnosis of FRDA and control donor with no mitochondrial disease. These cell lines were obtained from Coriell Cell Repositories (Camden, N.J., USA; catalog numbers GM04078 and GM08402, respectively). Fibroblasts were cultured in 64% (v/v) Eagle's Minimal Essential Medium (MEM), no phenol red with Eagle's balanced salt (EBS) and 25% M199 with EBS (GIBCO, Grand island, N.Y., USA) supplemented with 10% (v/v) Fetal Calf Serum (HyClone, South Logan, Utah, USA), 1% penicillin-streptomycin mix antibiotics (Cellgro, Manassan, Va., USA), 10 ng/mL insulin (Sigma, St. Louis, Mo., USA), 10 ng/mL basic fibroblast growth factor βFGF (Lonza, Walkersville, Md., USA) and 2 mM glutamine (HyClone, South Logan, Utah, USA). BSO (L-buthionine (S,R)-sulfoximine) and (+)-alpha-tocopherol were purchased from Sigma Chemicals and calcein AM was purchased from Molecular Probes. Cell were grown in 75 cm^2 culture flasks (T75) and incubated at 37° C. in a humidified atmosphere of 5% CO2 in air. Cells were fed twice a week and split every third day at a ratio of 1:3 upon reaching confluency. The invention compounds and reduced and oxidized forms of idebenone and alpha-tocopherol were reconstituted in DMSO or ethanol to provide 2.5 mM stock solutions.
Intervention compounds were screened according to the previous protocol (Jauslin et al. (2002) Human Molecular Genetics. 11, 3055-3063): Fibroblasts were seeded in 96 well microtiter black-walled cell culture plates (Costar, Corning, N.Y., USA) at a density of 3000 cells per well (100 μL). The plates were incubated overnight at 37° C. in a humidified atmosphere of 5% CO2 in air to allow attachment of the cells to the culture plate. Serial dilutions of intervention and references compounds were made from their respective stock solutions to give a total volume of 150 μL in each well. Plates were incubated overnight in cell culture. The following day, 50 μL of a 4 mM BSO solution (in culture media) was added to each well to provide a final BSO concentration of 1 mM. Cell viability was assessed after first signs of toxicity appeared in BSO-treated cells (typically after 24-30 hours) by examining cultures under phase-contrast microscopy. The cell culture medium was discarded by aspiration and each well of the cell culture plate washed with pre-warmed HSSB to remove serum esterase activity. Cells were then treated in with 200 μL of 1.2 μM calcein-AM in HSSB for 60 min at 37° C. in the dark to allow the dye to enter the cell and be cleaved by esterases. The negative control/background was 200 μL of HSSB buffer. Fluorescence intensities were measured with a Spectramax M5 spectrofluorometer (Molecular Devices, Sunnyvale, Calif., USA) using excitation and emission of 485 nm and 525 nm respectively. The intervention compounds were assayed in triplicate. […] The viability of non-BSO treated fibroblasts was set as 100%, and the viability of the BSO-treated and sample-treated cells was calculated relative to this value. […]

CEM cells = assay: Trypan blue cell viability assay, DEM-treated cells; assay type: cell-based, human; details: for EC50: CEM cells, pre-treatment 2 h, diethylmaleate 3 h, trypan blue exclusion, read-out: EC50 (effective concentration that prevents 50% of cell death); for maintaining cell viability (trypan blue exclusion): overnight incubation, then 5 mM DEM, 3 h
Description: Cell viability determined by trypan blue exclusion assay: This technique was used to assess the cytoprotective effects of the invention compounds in cultured cells pharmacologically treated to induce cell death by GSH depletion. DEM was used to deplete cellular GSH and induce oxidative stress. The viability of DEM-treated CEM cells was determined by their ability to exclude the dye trypan blue. Viable cells exclude trypan blue; whereas, non-viable cells take up the dye and stain blue. Briefly, CEM cells were grown in RPMI 1640 medium (GIBCO, Grand island, N.Y., USA) supplemented with 10% fetal calf serum, 2 mM glutamine (HyClone, South Logan, Utah, USA), 1% penicillin-streptomycin mix (Cellgro, Manassan, Va., USA). Cells were seeded at a density of 1×10^6 cells/mL and treated with different concentrations of the invention compounds. Cells were incubated at 37° C. in a humidified atmosphere of 5% CO2 in air for three hours with 5 mM DEM. Cell viability was determined by staining cells with 0.4% trypan blue using a hemacytometer. At least 500 cells were counted for each experimental group. At the time of assay, >95% of DEM-treated cells were trypan blue positive; whereas, in non-DEM treated control cell cultures >95% cells were viable. Cell viability was expressed as the percentage of control. Data are expressed as means±S.E.M (n=3).

SMILES	protection of FRDA fibroblasts from oxidative damage (cell viability) (FRDA fibroblasts)	EC50 (FRDA fibroblasts; Homo sapiens, Fibroblast) [nM]	EC50 (CEM cells) [nM]	EC50 (CEM cells; Homo sapiens, CCRF-CEM) [nM]	maintaining cell viability (trypan blue exclusion) (CEM cells)	EC50 (FRDA fibroblasts) [nM]
Cc1nc(N(C)C)nc(CCCCCCCCCCO)c1O [Compound A, 2-N,N-dimethylamino-5-hydroxy-4-methyl-6-(10-hydroxydecyl)-pyrimidine]	more effective than idebenone	390 ± 28	202 ± 23	203 ± 23	quite effective in maintaining cell viability following DEM treatment; also recorded: superior to idebenone in maintaining the viability of DEM-treated cells	
Cc1nc2c(c(CC[C@](C)(O)CCC[C@H](C)CCC[C@H](C)CCCC(C)C)c1O)CCN2C [Compound C, 4-((3R,7R,11R)-3-hydroxy-3,7,11,15-tetramethylhexadecyl)-1,6-dimethyl-2,3-dihydro-1H-pyrrolo[2,3-b]pyridine-5-ol]	slightly more effective than α-tocopherol	833 ± 75			both effective in maintaining cell viability following treatment with DEM, with compound C being somewhat more effective; also recorded: superiority of compound C	
COC1=C(OC)C(=O)C(CCCCCCCCCCO)=C(C)C1=O [idebenone, reference compound]		710 ± 80		765 ± 36		
Cc1c(C)c2c(c(C)c1O)CC[C@@](C)(CCC[C@H](C)CCC[C@H](C)CCCC(C)C)O2 [α-tocopherol, reference compound]					effective in maintaining cell viability following treatment with DEM	1030 ± 116
